Experimental data taken from patent US10869900B2, “Composition and products comprising senescent cells for use in tissue regeneration” (QRSkin GmbH, priority 2015, dated 2020).

Test system: Human primary keratinocyte BKB10002 cells
Experiment: Senescence induction by surfactant, β-Gal staining
Type: cell-based
Conditions: 2 uM NP40 for 14 days, EpiLife medium+S7 supplement, medium change every second day
Method: Human primary keratinocyte BKB10002 cells were treated with the surfactant NP40 in order to induce senescence. Cells were grown in EpiLife medium+S7 supplement without (control) or with 2 uM NP40 for 14 days with a medium change every second day. […] Protein concentrations in the supernatants of the cell cultures were quantified using the Bio-Plex® Multiplex Immunoassays or ELISA kits from BIO-RAD.

## NP40
  cells showing a positive β-Gal staining: 11%
